Experimental data reported in US12516064B2, “Tetrahydropyridopyrimidines and related analogs for inhibiting YAP/TAZ-TEAD” (THE KATHOLIEKE UNIVERSITEIT LEUVEN, priority 2022, dated 2026).

Test system: YAP/TAZ-TEAD transcription
Assay: Reporter gene assay for measuring the inhibition of YAP/TAZ-TEAD transcription
Type: cell-based
Settings: Homo sapiens, HEK-293T; Hek293T cells transiently transfected with TEAD-responsive element luciferase reporter; 24 hours incubation
Method: Hek293T cells are cultured in DMEM supplemented with 10% fetal bovine serum, Sodium pyruvate, Sodium bicarbonate, L-glutamine. The cells are harvested and transiently transfected with TEAD-responsive element luciferase reporter. Transfected cells are plated in 384-wells plate containing pre-diluted compounds. After 24 hours incubation at 37° C./5% CO2, assay plates were cooled down to RT and levelled to an equal volume per well, prior to the addition of 25 uL luciferase substrate SteadyLite (Perkin Elmer)/well. The plate was shaken for 10 min at 600 rpm, centrifuged for 1 min at 500 rpm and measured with an Envision reader (PerkinElmer). The amount of relative light units produced by the TEAD reporter is used to calculated percent of inhibition.
The percent of reporter inhibition was calculated in the presence of a positive control inhibitor (100% inhibition) versus a condition with the presence of the vehicle basal activity of the reporter (0% inhibition). The ability of a test compound to inhibit this activity was determined as: Percentage inhibition=[1−((RLU determined in the presence of vehicle−RLU determined for sample with test compound present) divided by (RLU determined in the presence of vehicle−RLU determined for sample with positive control inhibitor))]*100 The activities of example compounds tested are depicted in Table 8. The activity ranges A, B and C refer to IC50 values in the reporter gene assay as follows: “A”: EC50<1 μM; “B”: 1 μM≤EC50≤3.0 μM and “C”: EC50>3.0 μM, NT=not tested.

Row | SMILES | EC50
1 | Cn1ccc(-c2nc(-c3ccccc3)nc3c2CC(N)CC3)n1 (stereo not drawn) [Cpd. No. 1, 4-(1-methyl-1H-pyrazol-3-yl)-2-phenyl-5,6,7,8-tetrahydroquinazolin-6-amine] | > 3000 nM
2 | C=CC(=O)NC1CCc2nc(-c3ccccc3)nc(-c3ccn(C)n3)c2C1 (stereo not drawn) [Cpd. No. 2, N-(4-(1-methyl-1H-pyrazol-3-yl)-2-phenyl-5,6,7,8-tetrahydroquinazolin-6-yl)acrylamide] | > 3000 nM
3 | CCC(=O)NC1CCc2nc(-c3ccccc3)nc(-c3ccn(C)n3)c2C1 (stereo not drawn) [Cpd. No. 3, N-(4-(1-methyl-1H-pyrazol-3-yl)-2-phenyl-5,6,7,8-tetrahydroquinazolin-6-yl)propionamide] | > 3000 nM
4 | Cn1ccc(-c2nc(-c3ccccc3)nc3c2CC(NS(C)(=O)=O)CC3)n1 (stereo not drawn) [Cpd. No. 4, N-(4-(1-methyl-1H-pyrazol-3-yl)-2-phenyl-5,6,7,8-tetrahydroquinazolin-6-yl)methanesulfonamide] | > 3000 nM
5 | Cn1ccc(-c2nc(-c3ccccc3)nc3c2CCC(N)C3)n1 (stereo not drawn) [Cpd. No. 5, 4-(1-methyl-1H-pyrazol-3-yl)-2-phenyl-5,6,7,8-tetrahydroquinazolin-7-amine] | > 3000 nM
6 | C=CC(=O)NC1CCc2c(nc(-c3ccccc3)nc2-c2ccn(C)n2)C1 (stereo not drawn) [Cpd. No. 6, N-(4-(1-methyl-1H-pyrazol-3-yl)-2-phenyl-5,6,7,8-tetrahydroquinazolin-7-yl)acrylamide] | > 3000 nM
7 | CCC(=O)NC1CCc2c(nc(-c3ccccc3)nc2-c2ccn(C)n2)C1 (stereo not drawn) [Cpd. No. 7, N-(4-(1-methyl-1H-pyrazol-3-yl)-2-phenyl-5,6,7,8-tetrahydroquinazolin-7-yl)propionamide] | > 3000 nM
8 | Cn1ccc(-c2nc(-c3ccccc3)nc3c2CCC(NS(C)(=O)=O)C3)n1 (stereo not drawn) [Cpd. No. 8, N-(4-(1-methyl-1H-pyrazol-3-yl)-2-phenyl-5,6,7,8-tetrahydroquinazolin-7-yl)methanesulfonamide] | > 3000 nM
9 | C=CC(=O)NC1CCc2nc(-c3ccccc3)nc(-c3ccn(Cc4cccnc4)n3)c2C1 (stereo not drawn) [Cpd. No. 9, N-(2-phenyl-4-(1-(pyridin-3-ylmethyl)-1H-pyrazol-3-yl)-5,6,7,8-tetrahydroquinazolin-6-yl)acrylamide] | > 3000 nM
10 | CCC(=O)NC1CCc2nc(-c3ccccc3)nc(-c3ccn(Cc4cccnc4)n3)c2C1 (stereo not drawn) [Cpd. No. 10, N-(2-phenyl-4-(1-(pyridin-3-ylmethyl)-1H-pyrazol-3-yl)-5,6,7,8-tetrahydroquinazolin-6-yl)propionamide] | > 3000 nM
11 | C=CC(=O)NC1CCc2c(nc(-c3ccccc3)nc2-c2ccn(Cc3cccnc3)n2)C1 (stereo not drawn) [Cpd. No. 11, N-(2-phenyl-4-(1-(pyridin-3-ylmethyl)-1H-pyrazol-3-yl)-5,6,7,8-tetrahydroquinazolin-7-yl)acrylamide] | 1000 to 3000 nM
12 | CCC(=O)NC1CCc2c(nc(-c3ccccc3)nc2-c2ccn(Cc3cccnc3)n2)C1 (stereo not drawn) [Cpd. No. 12, N-(2-phenyl-4-(1-(pyridin-3-ylmethyl)-1H-pyrazol-3-yl)-5,6,7,8-tetrahydroquinazolin-7-yl)propionamide] | > 3000 nM
13 | CS(=O)(=O)NC1CCc2c(nc(-c3ccccc3)nc2-c2ccn(Cc3cccnc3)n2)C1 (stereo not drawn) [Cpd. No. 13, N-(2-phenyl-4-(1-(pyridin-3-ylmethyl)-1H-pyrazol-3-yl)-5,6,7,8-tetrahydroquinazolin-7-yl)methanesulfonamide] | > 3000 nM
14 | C=CC(=O)N1Cc2nc(-c3ccccc3)nc(-c3ccn(C)n3)c2C1 [Cpd. No. 14, 1-(4-(1-methyl-1H-pyrazol-3-yl)-2-phenyl-5,7-dihydro-6H-pyrrolo[3,4-d]pyrimidin-6-yl)prop-2-en-1-one] | < 1000 nM
15 | CCC(=O)N1Cc2nc(-c3ccccc3)nc(-c3ccn(C)n3)c2C1 [Cpd. No. 15, 1-(4-(1-methyl-1H-pyrazol-3-yl)-2-phenyl-5,7-dihydro-6H-pyrrolo[3,4-d]pyrimidin-6-yl)propan-1-one] | > 3000 nM
16 | Cn1ccc(-c2nc(-c3ccccc3)nc3c2CN(S(C)(=O)=O)C3)n1 [Cpd. No. 16, 4-(1-methyl-1H-pyrazol-3-yl)-6-(methylsulfonyl)-2-phenyl-6,7-dihydro-5H-pyrrolo[3,4-d]pyrimidine] | > 3000 nM
17 | C=CC(=O)N1Cc2nc(Cc3ccccc3)nc(-c3ccn(Cc4cccnc4)n3)c2C1 [Cpd. No. 17, 1-(2-benzyl-4-(1-(pyridin-3-ylmethyl)-1H-pyrazol-3-yl)-5,7-dihydro-6H-pyrrolo[3,4-d]pyrimidin-6-yl)prop-2-en-1-one] | < 1000 nM

Row | SMILES | EC50
18 | CCC(=O)N1Cc2nc(Cc3ccccc3)nc(-c3ccn(Cc4cccnc4)n3)c2C1 [Cpd. No. 18, 1-(2-benzyl-4-(1-(pyridin-3-ylmethyl)-1H-pyrazol-3-yl)-5,7-dihydro-6H-pyrrolo[3,4-d]pyrimidin-6-yl)propan-1-one] | 1000 to 3000 nM
19 | CS(=O)(=O)N1Cc2nc(Cc3ccccc3)nc(-c3ccn(Cc4cccnc4)n3)c2C1 [Cpd. No. 19, 2-benzyl-6-(methylsulfonyl)-4-(1-(pyridin-3-ylmethyl)-1H-pyrazol-3-yl)-6,7-dihydro-5H-pyrrolo[3,4-d]pyrimidine] | 1000 to 3000 nM
20 | CCC(=O)N1Cc2nc(Cc3ccccc3)nc(-c3ccn(C)n3)c2C1 [Cpd. No. 21, 1-(2-benzyl-4-(1-methyl-1H-pyrazol-3-yl)-5,7-dihydro-6H-pyrrolo[3,4-d]pyrimidin-6-yl)propan-1-one] | 1000 to 3000 nM
21 | Cn1ccc(-c2nc(Cc3ccccc3)nc3c2CN(S(C)(=O)=O)C3)n1 [Cpd. No. 22, 2-benzyl-4-(1-methyl-1H-pyrazol-3-yl)-6-(methylsulfonyl)-6,7-dihydro-5H-pyrrolo[3,4-d]pyrimidine] | > 3000 nM
22 | C=CC(=O)N1Cc2nc(-c3ccccc3)nc(-c3ccn(Cc4cccnc4)n3)c2C1 [Cpd. No. 23, 1-(2-phenyl-4-(1-(pyridin-3-ylmethyl)-1H-pyrazol-3-yl)-5,7-dihydro-6H-pyrrolo[3,4-d]pyrimidin-6-yl)prop-2-en-1-one] | < 1000 nM
23 | CCC(=O)N1Cc2nc(-c3ccccc3)nc(-c3ccn(Cc4cccnc4)n3)c2C1 [Cpd. No. 24, 1-(2-phenyl-4-(1-(pyridin-3-ylmethyl)-1H-pyrazol-3-yl)-5,7-dihydro-6H-pyrrolo[3,4-d]pyrimidin-6-yl)propan-1-one] | 1000 to 3000 nM
24 | CS(=O)(=O)N1Cc2nc(-c3ccccc3)nc(-c3ccn(Cc4cccnc4)n3)c2C1 [Cpd. No. 25, 6-(methylsulfonyl)-2-phenyl-4-(1-(pyridin-3-ylmethyl)-1H-pyrazol-3-yl)-6,7-dihydro-5H-pyrrolo[3,4-d]pyrimidine] | 1000 to 3000 nM
25 | CC(=O)NCC(=O)N1Cc2nc(-c3ccccc3)nc(-c3ccn(Cc4cccnc4)n3)c2C1 [Cpd. No. 26, N-(2-oxo-2-(2-phenyl-4-(1-(pyridin-3-ylmethyl)-1H-pyrazol-3-yl)-5,7-dihydro-6H-pyrrolo[3,4-d]pyrimidin-6-yl)ethyl)acetamide] | > 3000 nM
26 | CC(=O)NCC(=O)N1Cc2nc(Cc3ccccc3)nc(-c3ccn(Cc4cccnc4)n3)c2C1 [Cpd. No. 27, N-(2-(2-benzyl-4-(1-(pyridin-3-ylmethyl)-1H-pyrazol-3-yl)-5,7-dihydro-6H-pyrrolo[3,4-d]pyrimidin-6-yl)-2-oxoethyl)acetamide] | > 3000 nM
27 | CS(=O)(=O)NCC(=O)N1Cc2nc(Cc3ccccc3)nc(-c3ccn(Cc4cccnc4)n3)c2C1 [Cpd. No. 28, N-(2-(2-benzyl-4-(1-(pyridin-3-ylmethyl)-1H-pyrazol-3-yl)-5,7-dihydro-6H-pyrrolo[3,4-d]pyrimidin-6-yl)-2-oxoethyl)methanesulfonamide] | > 3000 nM
28 | O=S(=O)(F)CCN1Cc2nc(-c3ccccc3)nc(-c3ccn(Cc4cccnc4)n3)c2C1 [Cpd. No. 29, 2-(2-phenyl-4-(1-(pyridin-3-ylmethyl)-1H-pyrazol-3-yl)-5,7-dihydro-6H-pyrrolo[3,4-d]pyrimidin-6-yl)ethane-1-sulfonyl fluoride] | > 3000 nM
29 | O=S(=O)(F)CCN1Cc2nc(Cc3ccccc3)nc(-c3ccn(Cc4cccnc4)n3)c2C1 [Cpd. No. 30, 2-(2-benzyl-4-(1-(pyridin-3-ylmethyl)-1H-pyrazol-3-yl)-5,7-dihydro-6H-pyrrolo[3,4-d]pyrimidin-6-yl)ethane-1-sulfonyl fluoride] | > 3000 nM
30 | CNS(=O)(=O)CCN1Cc2nc(-c3ccccc3)nc(-c3ccn(Cc4cccnc4)n3)c2C1 [Cpd. No. 31, N-methyl-2-(2-phenyl-4-(1-(pyridin-3-ylmethyl)-1H-pyrazol-3-yl)-5,7-dihydro-6H-pyrrolo[3,4-d]pyrimidin-6-yl)ethane-1-sulfonamide] | 1000 to 3000 nM
31 | CCC(=O)N1CCc2c(nc(Cc3ccccc3)nc2-c2ccn(C)n2)C1 [Cpd. No. 33, 1-(2-benzyl-4-(1-methyl-1H-pyrazol-3-yl)-5,8-dihydropyrido[3,4-d]pyrimidin-7(6H)-yl)propan-1-one] | > 3000 nM
32 | Cn1ccc(-c2nc(Cc3ccccc3)nc3c2CCN(S(C)(=O)=O)C3)n1 [Cpd. No. 34, 2-benzyl-4-(1-methyl-1H-pyrazol-3-yl)-7-(methylsulfonyl)-5,6,7,8-tetrahydropyrido[3,4-d]pyrimidine] | > 3000 nM
33 | CCC(=O)N1CCc2c(nc(Cc3ccccc3)nc2-c2ccn(Cc3cccnc3)n2)C1 [Cpd. No. 36, 1-(2-benzyl-4-(1-(pyridin-3-ylmethyl)-1H-pyrazol-3-yl)-5,8-dihydropyrido[3,4-d]pyrimidin-7(6H)-yl)propan-1-one] | 1000 to 3000 nM
